Columns and labels:
Rattus norvegicus [1] = assay: Natriuretic activity in rat assessed as per cage at 9 mg/kg, po; assay type: functional
Pan troglodytes [2] = assay: Natriuretic activity in chimpanzee assessed as per min at 5 mg/kg, po; assay type: functional
Rattus norvegicus [3] = assay: Natriuretic activity in rat assessed as per cage at 27 mg/kg, po; assay type: functional
Canis familiaris [4] = assay: Diuretic activity in dog assessed as chloride level in urine per min at 5 mg/kg, iv relative to control; assay type: functional, Canis lupus familiaris
Pan troglodytes [5] = assay: Natriuretic activity in chimpanzee assessed as change in Curate to Cinsulin ratio at 5 mg/kg, po; assay type: functional
Canis familiaris [6] = assay: Diuretic activity in dog assessed as sodium level in urine per min at 5 mg/kg, iv relative to control; assay type: functional, Canis lupus familiaris
Rattus norvegicus [7] = assay: Natriuretic activity in rat assessed as per cage at 81 mg/kg, po; assay type: functional
Canis familiaris [8] = assay: Diuretic activity in dog assessed as […] urine volume at 5 mg/kg, iv relative to control; assay type: functional, Canis lupus familiaris
Rattus norvegicus [9] = assay: Natriuretic activity in rat assessed as per cage at 3 mg/kg, po; assay type: functional
Canis familiaris [10] = assay: Diuretic activity in dog assessed as […] urine volume at 1 mg/kg, iv relative to control; assay type: functional, Canis lupus familiaris
Canis familiaris [11] = assay: Diuretic activity in dog assessed as chloride level in urine per min at 1 mg/kg, iv relative to control; assay type: functional, Canis lupus familiaris
Canis familiaris [12] = assay: Diuretic activity in dog assessed as potassium level in urine per min at 1 mg/kg, iv relative to control; assay type: functional, Canis lupus familiaris
Canis familiaris [13] = assay: Diuretic activity in dog assessed as sodium level in urine per min at 1 mg/kg, iv relative to control; assay type: functional, Canis lupus familiaris

SMILES	Activity (Rattus norvegicus [1]) [mEq]	Activity (Pan troglodytes [2]) [uEq]	Activity (Rattus norvegicus [3]) [mEq]	Activity (Canis familiaris [4]) [µEq/min]	Ratio (Pan troglodytes [5])	Activity (Canis familiaris [6]) [µEq/min]	Activity (Rattus norvegicus [7]) [mEq]	Activity (Canis familiaris [8]) [mL]	Activity (Rattus norvegicus [9]) [mEq]	further results
CC1(c2ccccc2)Cc2cc(OCC(=O)O)c(Cl)c(Cl)c2C1=O (single isomer, unassigned; (+)) [INDACRINONE]										Activity (Rattus norvegicus [1]; 9 mg/kg): 0.38 mEq; Activity (Pan troglodytes [2]; 5 mg/kg): 221 uEq; Activity (Rattus norvegicus [3]; 27 mg/kg): 0.71 mEq; Activity (Canis familiaris [4]; 5 mg/kg): 304 µEq/min; Ratio (Pan troglodytes [5]; 5 mg/kg): 0.16; Activity (Canis familiaris [6]; 5 mg/kg): 221 µEq/min; Activity (Rattus norvegicus [7]; 81 mg/kg): 0.88 mEq; Activity (Canis familiaris [8]; 5 mg/kg): 4 mL; Activity (Rattus norvegicus [9]; 3 mg/kg): 0.77 mEq
O=C(O)COc1cc2c(c(Cl)c1Cl)C(=O)C(c1ccccc1)(c1ccccc1)C2	0.93	19	1.09	5	0.03	44	0.95	2	0.4	
CC(=O)c1ccc(C2(C)Cc3cc(OCC(=O)O)c(Cl)c(Cl)c3C2=O)cc1 (configuration not stated)	0.62	608	0.81		0.08		1.63		0.49	
CCC1(c2ccccc2)Cc2cc(OCC(=O)O)c(Cl)c(Cl)c2C1=O (configuration not stated)	1.15	369	1.19	396	0.12	431	1.34	4	0.75	
CC1(c2ccccc2)Cc2cc(OCC(=O)O)c(Cl)c(Cl)c2C1=O (single isomer, unassigned; (-)) [INDACRINONE]										Activity (Rattus norvegicus [1]; 9 mg/kg): 1.21 mEq; Activity (Pan troglodytes [2]; 5 mg/kg): 743 uEq; Activity (Rattus norvegicus [3]; 27 mg/kg): 1.79 mEq; Activity (Canis familiaris [4]; 5 mg/kg): 360 µEq/min; Ratio (Pan troglodytes [5]; 5 mg/kg): 0.28; Activity (Canis familiaris [6]; 5 mg/kg): 314 µEq/min; Activity (Rattus norvegicus [7]; 81 mg/kg): 2.71 mEq; Activity (Rattus norvegicus [9]; 3 mg/kg): 1.01 mEq
O=C(O)COc1cc2c(c(Cl)c1Cl)C(=O)C1(c3ccccc3)CCCCC21 (configuration not stated)	0.65	137	0.86	211	0.08	276	1.17	4	0.47	
CC1(c2ccccc2)Cc2cc(OCC(=O)O)c(Cl)c(Cl)c2C1=O (racemic) [INDACRINONE]										Activity (Rattus norvegicus [1]; 9 mg/kg): 0.97 mEq; Activity (Pan troglodytes [2]; 5 mg/kg): 409 uEq; Activity (Rattus norvegicus [3]; 27 mg/kg): 1.29 mEq; Activity (Canis familiaris [4]; 5 mg/kg): 1010 µEq/min; Ratio (Pan troglodytes [5]; 5 mg/kg): 0.38; Activity (Canis familiaris [6]; 5 mg/kg): 920 µEq/min; Activity (Rattus norvegicus [7]; 81 mg/kg): 1.89 mEq; Activity (Canis familiaris [8]; 5 mg/kg): 8 mL; Activity (Rattus norvegicus [9]; 3 mg/kg): 0.86 mEq
CC1(c2ccc(F)cc2)Cc2cc(OCC(=O)O)c(Cl)c(Cl)c2C1=O (configuration not stated)	0.86	310	1.23	362	0.43	352	1.73	3	1.01	
COc1ccc(C2(C)Cc3cc(OCC(=O)O)c(Cl)c(Cl)c3C2=O)cc1 (configuration not stated)	0.76	459	1.29		0.01				0.45	
CC1(c2ccc([N+](=O)[O-])cc2)Cc2cc(OCC(=O)O)c(Cl)c(Cl)c2C1=O (configuration not stated)	1.02	176	1.68	810	0.03	751	1.98	8	0.89	
NS(=O)(=O)c1cc(C(=O)O)c(NCc2ccco2)cc1Cl [FUROSEMIDE]	0.07	1035	1.25		-0.02		2.44			Activity (Canis familiaris [10]): 3 mL; Activity (Canis familiaris [11]): 1080 µEq/min; Activity (Canis familiaris [12]): 141 milliequivalent; Activity (Canis familiaris [13]): 960 milliequivalent
CCCN(CCC)S(=O)(=O)c1ccc(C(=O)O)cc1 [PROBENECID]					0.05					
CC1(c2ccc(CN)cc2)Cc2cc(OCC(=O)[O-])c(Cl)c(Cl)c2C1=O.[Na+] (configuration not stated)	0.17	135	0.27	424	0	497	0.19	5	0.18	
O=C(O)COc1cc2c(c(Cl)c1Cl)C(=O)C(c1ccccc1)(C1CCCC1)C2 (configuration not stated)	0.4	47	0.31	0.9	0	11	0.35	0.8	0.79	
CC1(c2ccc(Cl)cc2)Cc2cc(OCC(=O)O)c(Cl)c(Cl)c2C1=O (configuration not stated)	0.3	302	0.25	282	0.25	305	0.37	6	0.21	
CC1(c2cccs2)Cc2cc(OCC(=O)O)c(Cl)c(Cl)c2C1=O (configuration not stated)	0.79	416	1.41	598	0.47	503	1.77	5	0.46	
CC1(c2ccccc2)Cc2cc(OCc3nnn[nH]3)c(Cl)c(Cl)c2C1=O (configuration not stated)	0.17	44	0.2	245	0.09	279	0.4	3	0.28	
CC1(c2ccc(S(N)(=O)=O)cc2)Cc2cc(OCC(=O)O)c(Cl)c(Cl)c2C1=O (configuration not stated)	0.29	674	0.86		0				0.32	
Cc1c(OCC(=O)O)cc2c(c1Cl)C(=O)C(C)(c1ccccc1)C2 (configuration not stated)	1.16	479	1.38	262	0.31	226	1.62	4	1.35	
NS(=O)(=O)c1cc2c(cc1Cl)NCNS2(=O)=O [HYDROCHLOROTHIAZIDE]	1.12	144		156		166		3		
CC1(c2ccc(N)cc2)Cc2cc(OCC(=O)O)c(Cl)c(Cl)c2C1=O (configuration not stated)	0.53	244	0.98	1180	0.1	1130	1.34	10	0.33	
CC1(c2ccc(O)cc2)Cc2cc(OCC(=O)O)c(Cl)c(Cl)c2C1=O (configuration not stated)	0.33	151	0.35	1460	0.02	1260		10	0.17	
CC1(c2ccc(Br)cc2)Cc2cc(OCC(=O)O)c(Cl)c(Cl)c2C1=O (configuration not stated)	0.29	27	0.27	34	0.01	96	0.42	3	0.21	

From ChEMBL document CHEMBL3243997, “(Acylaryloxy)acetic acid diuretics. 2. (2-Alkyl-2-aryl-1-oxo-5-indanyloxy)acetic acids” (1978)
